From PMC9310846, “Photoaffinity Capture Compounds to Profile the Magic Spot Nucleotide Interactomes” (Angewandte Chemie (International Ed. in English), 2022)

Key:
[1] = biological target: T1, ApaH (bis(5′‐nucleosyl)‐tetraphosphatase) (Escherichia coli, UniProt P05637); experiment: LC-MS assay of Ap4A hydrolysis by […] ApaH; format: biochemical
T1 sequence (P05637 1-280): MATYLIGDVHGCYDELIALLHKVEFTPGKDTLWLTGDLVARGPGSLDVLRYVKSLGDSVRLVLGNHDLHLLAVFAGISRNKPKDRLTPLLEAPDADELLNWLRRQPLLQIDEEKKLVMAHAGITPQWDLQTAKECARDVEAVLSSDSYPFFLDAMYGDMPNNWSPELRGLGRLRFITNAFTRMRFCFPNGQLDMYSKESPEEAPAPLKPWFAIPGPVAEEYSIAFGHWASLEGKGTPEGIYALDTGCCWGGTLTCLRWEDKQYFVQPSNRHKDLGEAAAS

[2] = biological target: T1, ApaH (bis(5′‐nucleosyl)‐tetraphosphatase); experiment: inhibition of Ap4A hydrolysis by ApaH; pGpp is also the product of pppGpp cleavage; format: biochemical
[3] = biological target: T1, ApaH (bis(5′‐nucleosyl)‐tetraphosphatase); experiment: LC-MS assay of Ap4A hydrolysis by […] ApaH; pppGpp is also hydrolysed to pGpp (KM […]); format: biochemical
purified protein = substrate: Nc1nc2c(ncn2[C@@H]2O[C@H](COP(=O)(O)OP(=O)(O)OP(=O)(O)O)[C@@H](O)[C@H]2O)c(=O)[nH]1; experiment: purified protein; format: biochemical, Escherichia coli; settings: Co2+

## Nc1nc2c(ncn2[C@@H]2O[C@H](COP(=O)(O)OP(=O)(O)O)[C@@H](OP(=O)(O)OP(=O)(O)O)[C@H]2O)c(=O)[nH]1 [ppGpp]
[1]
  IC50: 21 ± 7 µM

## Nc1nc2c(ncn2[C@@H]2O[C@H](COP(=O)(O)O)[C@@H](OP(=O)(O)OP(=O)(O)O)[C@H]2O)c(=O)[nH]1 [pGpp]
[2]
  IC50: 190 ± 30 µM

## Nc1nc2c(ncn2[C@@H]2O[C@H](COP(=O)(O)OP(=O)(O)OP(=O)(O)O)[C@@H](OP(=O)(O)OP(=O)(O)O)[C@H]2O)c(=O)[nH]1 [pppGpp]
[3]
  IC50: 8 ± 3 µM

B1: ApaH (bis(5′‐nucleosyl)‐tetraphosphatase) (Escherichia coli K-12) (protein)
chain: MATYLIGDVHGCYDELIALLHKVEFTPGKDTLWLTGDLVARGPGSLDVLRYVKSLGDSVRLVLGNHDLHLLAVFAGISRNKPKDRLTPLLEAPDADELLNWLRRQPLLQIDEEKKLVMAHAGITPQWDLQTAKECARDVEAVLSSDSYPFFLDAMYGDMPNNWSPELRGLGRLRFITNAFTRMRFCFPNGQLDMYSKESPEEAPAPLKPWFAIPGPVAEEYSIAFGHWASLEGKGTPEGIYALDTGCCWGGTLTCLRWEDKQYFVQPSNRHKDLGEAAAS
Purified protein
  Km: 13 ± 5 µM
